Here are results for 10 molecules from publication PMC7665585, “Antidepressive effect of an inward rectifier K^+ channel blocker peptide, tertiapin-RQ” (PLoS ONE, 2020).

In the test the target is T1, rat ROMK (Rattus norvegicus, UniProt P35560).
T1 construct: expressed in transfected cells; host or cells: 293T cell line 208-4 (lentiviral transduction, GFP coexpressed)
T1 sequence (P35560 1-391): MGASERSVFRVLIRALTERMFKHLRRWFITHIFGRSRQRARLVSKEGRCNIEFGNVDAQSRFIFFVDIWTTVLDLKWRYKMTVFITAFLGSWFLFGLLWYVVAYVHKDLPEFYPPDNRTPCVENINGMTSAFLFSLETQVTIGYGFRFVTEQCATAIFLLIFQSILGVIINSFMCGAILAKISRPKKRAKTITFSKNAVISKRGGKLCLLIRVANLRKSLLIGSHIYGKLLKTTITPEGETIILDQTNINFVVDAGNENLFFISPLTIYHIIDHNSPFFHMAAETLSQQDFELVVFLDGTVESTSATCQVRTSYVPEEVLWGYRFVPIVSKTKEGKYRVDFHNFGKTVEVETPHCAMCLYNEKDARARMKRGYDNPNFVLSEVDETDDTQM
Nature of the test: Whole-cell patch-clamp of ROMK currents in 208–4 cells. Type of test: cell-based. The following applies: blockade at 1 μM estimated from fitted Hill curve (four parameters), whole-cell conductance, n = 3–6, read-out: Activity (ROMK channel blocking activity, percentage of blockade at 1 μM). The source says:
The cDNAs for rat ROMK and mouse GIRK1, 2, and 4 were generously donated by Drs Mikio Hayashi (Kansai Medical University) and David Weaver (Vanderbilt University). The ROMK channels were stably expressed by a cell line, 208–4, which was transduced with lentiviral vectors coexpressing the channel and green fluorescent protein (GFP) as described previously. The GIRK genes, cloned in a pCMV6 plasmid (Origene Technologies Inc, Rockville, MD), were transiently expressed in 293T cells with calcium phosphate transfection. GIRK channel currents were recorded 24 h after transfection.
Cells grown on small cover glasses (3 × 18 mm) were placed in a recording chamber. Whole-cell currents were recorded in Tyrode solution using an Axopatch 200B amplifier (Axon Instruments, Foster City, CA) at 25°C. Tyrode solution contained (in mM): NaCl 140, KCl 5.4, NaH2PO4 0.33, CaCl2 2, MgCl2 1, HEPES 5, and glucose 5.5 (pH 7.4 adjusted with NaOH). High K^+ Tyrode solution (KCL 50 mM, NaCl 95 mM, and others were the same as standard Tyrode solution) was used for the recording of GIRK channels. Patch pipettes pulled from borosilicate glass (Narishige, Tokyo, Japan) were filled with an internal solution containing (in mM): K-aspartate 66, KCl 71.5, KH2PO4 1, EGTA 5, HEPES 5, and MgATP 3 (pH 7.4 adjusted with KOH). Recordings were digitized at 10 kHz, and low-pass filtered at 2 kHz. ROMK, Kir2.1, and GIRK currents were evoked with step pulses of 400 msec from -150 mV to 10 mV in 10 mV increments from a holding potential of -70 mV. Whole-cell currents were recorded 60 sec after the peptide application and those from 100 to 300 msec of the step pulses were averaged. Liquid junction potential or capacitive transient was not corrected or compensated. Whole-cell conductance was calculated as the slope of the current-voltage (I-V) relationship from -140 mV to -100 mV and normalized to the initial value (0 μM TPN), in which BaCl2-resistant current was subtracted and indicted as a percentage.

Bridge positions count the residues as written; N and C are the ends. Peptide text beside a SMILES is read from it. Bounds are passed on as bounds.

Take `CC[C@H](C)[C@@H]1NC(=O)[C@H](CCCNC(=N)N)NC(=O)[C@H](CCCNC(=N)N)NC(=O)[C@H](CC(N)=O)NC(=O)[C@H](CO)NC(=O)[C@H](CC(N)=O)NC(=O)[C@@H](N)CSSC[C@@H](C(=O)N[C@@H](Cc2c[nH]c3ccccc23)C(=O)N[C@@H](CCCCN)C(N)=O)NC(=O)[C@H](CCC(N)=O)NC(=O)[C@H](CCCCN)NC(=O)[C@@H]2CCCN2C(=O)[C@H]([C@@H](C)CC)NC1=O` [Peptide 42, TPN-RQ 3-16(C5S/H12K)] (H-CNSNRRIIPKQCWK-NH2; disulfide 1-12): the inhibition at 1 µM was less than 20%.

On to `CC[C@H](C)[C@@H]1NC(=O)[C@H](CCCNC(=N)N)NC(=O)[C@H](CCCNC(=N)N)NC(=O)[C@H](CC(N)=O)NC(=O)[C@H](CO)NC(=O)[C@H](CC(N)=O)NC(=O)[C@@H](NC(=O)[C@@H](N)CCC(N)=O)CSSC[C@@H](C(=O)N[C@@H](Cc2c[nH]c3ccccc23)C(=O)N[C@@H](CCCCN)C(N)=O)NC(=O)[C@H](CCC(N)=O)NC(=O)[C@H](Cc2c[nH]cn2)NC(=O)[C@@H]2CCCN2C(=O)[C@H]([C@@H](C)CC)NC1=O` [Peptide 43, Q + TPN-RQ 3-16(C5S)] (H-QCNSNRRIIPHQCWK-NH2; disulfide 2-13), for which the inhibition at 1 µM was less than 20%.

For `CC[C@H](C)[C@@H]1NC(=O)[C@H](CCCNC(=N)N)NC(=O)[C@H](CCCNC(=N)N)NC(=O)[C@H](CC(N)=O)NC(=O)[C@H](CO)NC(=O)[C@H](CC(N)=O)NC(=O)[C@@H](NC(=O)[C@@H](N)CCC(N)=O)CSSC[C@@H](C(=O)N[C@@H](Cc2c[nH]c3ccccc23)C(=O)N[C@@H](CCCCN)C(N)=O)NC(=O)[C@H](CCC(N)=O)NC(=O)[C@H](CCCCN)NC(=O)[C@@H]2CCCN2C(=O)[C@H]([C@@H](C)CC)NC1=O` [Peptide 44, Q + TPN-RQ 3-16(C5S/H12K)] (H-QCNSNRRIIPKQCWK-NH2; disulfide 2-13), the inhibition at 1 µM is less than 20%.

As for `CC[C@H](C)[C@@H]1NC(=O)[C@H](CCCNC(=N)N)NC(=O)[C@H](CC(N)=O)NC(=O)[C@@H](NC(=O)[C@H](CC(N)=O)NC(=O)[C@H](CO)NC(=O)[C@H](CC(C)C)NC(=O)[C@H](C)N)CSSC[C@@H](C(=O)NCC(=O)N[C@@H](CCCCN)C(=O)N[C@@H](CCCCN)C(N)=O)NC(=O)[C@H](CCCCN)NC(=O)[C@H](CCCCN)NC(=O)[C@H](Cc2c[nH]c3ccccc23)NC(=O)[C@H](CO)NC(=O)[C@H](CCC(N)=O)NC(=O)[C@H](Cc2c[nH]cn2)NC(=O)[C@@H]2CCCN2C(=O)[C@H]([C@@H](C)CC)NC(=O)[C@H]([C@@H](C)CC)NC1=O` [Peptide 49, TPN-Q(C3S/C14S)] (H-ALSNCNRIIIPHQSWKKCGKK-NH2; disulfide 5-18), the inhibition at 1 µM is less than 20%.

Turning to `CC[C@H](C)[C@@H]1NC(=O)[C@H](CCCNC(=N)N)NC(=O)[C@H](CCCNC(=N)N)NC(=O)[C@H](CC(N)=O)NC(=O)[C@@H](NC(=O)[C@H](CC(N)=O)NC(=O)[C@H](CO)NC(=O)[C@H](CC(C)C)NC(=O)[C@H](C)N)CSSC[C@@H](C(=O)NCC(=O)N[C@@H](CCCCN)C(=O)N[C@@H](CCCCN)C(N)=O)NC(=O)[C@H](CCCCN)NC(=O)[C@H](CCCCN)NC(=O)[C@H](Cc2c[nH]c3ccccc23)NC(=O)[C@H](CO)NC(=O)[C@H](CCC(N)=O)NC(=O)[C@H](Cc2c[nH]cn2)NC(=O)[C@@H]2CCCN2C(=O)[C@H]([C@@H](C)CC)NC1=O` [Peptide 50, TPN-RQ(C3S/C14S)] (H-ALSNCNRRIIPHQSWKKCGKK-NH2; disulfide 5-18), the inhibition at 1 µM was less than 20%.

Take `CC[C@H](C)[C@@H]1NC(=O)[C@H](CCCNC(=N)N)NC(=O)[C@H](CC(N)=O)NC(=O)[C@@H]2CSSC[C@@H](C(=O)NCC(=O)N[C@@H](CCCCN)C(=O)N[C@@H](CCCCN)C(N)=O)NC(=O)[C@H](CCCCN)NC(=O)[C@H](CCCCN)NC(=O)[C@H](Cc3c[nH]c4ccccc34)NC(=O)[C@H](CSSC[C@H](NC(=O)[C@H](CC(C)C)NC(=O)[C@H](C)N)C(=O)N[C@@H](CC(N)=O)C(=O)N2)NC(=O)[C@H](CCC(N)=O)NC(=O)[C@H](Cc2c[nH]cn2)NC(=O)[C@@H]2CCCN2C(=O)[C@H]([C@@H](C)CC)NC1=O` [Peptide 51, TPN-RQ(Δ8R)] (H-ALCNCNRIIPHQCWKKCGKK-NH2; disulfide 3-13, 5-17): the inhibition at 1 µM was 40 to 60%.

`CC[C@H](C)[C@@H]1NC(=O)[C@H](CCCNC(=N)N)NC(=O)[C@H](CC(N)=O)NC(=O)[C@@H]2CSSC[C@@H](C(=O)NCC(=O)N[C@@H](CCCCN)C(=O)N[C@@H](CCCCN)C(N)=O)NC(=O)[C@H](CCCCN)NC(=O)[C@H](CCCCN)NC(=O)[C@H](Cc3c[nH]c4ccccc34)NC(=O)[C@H](CSSC[C@H](NC(=O)[C@H](CC(C)C)NC(=O)[C@H](C)N)C(=O)N[C@@H](CC(N)=O)C(=O)N2)NC(=O)[C@H](CCC(N)=O)NC(=O)[C@H](Cc2c[nH]cn2)NC(=O)[C@@H]2CCCN2C1=O` [Peptide 52, TPN-RQ(Δ8R/ΔI9)] (H-ALCNCNRIPHQCWKKCGKK-NH2; disulfide 3-12, 5-16): the inhibition at 1 µM was less than 20%.

In the case of `CC(C)C[C@H](NC(=O)[C@H](C)N)C(=O)N[C@H]1CSSC[C@@H]2NC(=O)[C@H](CCC(N)=O)NC(=O)[C@H](Cc3c[nH]cn3)NC(=O)[C@@H]3CCCN3C(=O)[C@H](CCCNC(=N)N)NC(=O)[C@H](CCCNC(=N)N)NC(=O)[C@H](CC(N)=O)NC(=O)[C@H](CSSC[C@@H](C(=O)NCC(=O)N[C@@H](CCCCN)C(=O)N[C@@H](CCCCN)C(N)=O)NC(=O)[C@H](CCCCN)NC(=O)[C@H](CCCCN)NC(=O)[C@H](Cc3c[nH]c4ccccc34)NC2=O)NC(=O)[C@H](CC(N)=O)NC1=O` [Peptide 53, TPN-RQ(ΔI9/ΔI10)] (H-ALCNCNRRPHQCWKKCGKK-NH2; disulfide 3-12, 5-16), the inhibition at 1 µM is less than 20%.

Consider `CC[C@H](C)[C@@H]1NC(=O)[C@H](CCCNC(=N)N)NC(=O)[C@H](CCCNC(=N)N)NC(=O)[C@H](CC(N)=O)NC(=O)[C@@H]2CSSC[C@@H](C(=O)NCC(=O)N[C@@H](CCCCN)C(=O)N[C@@H](CCCCN)C(N)=O)NC(=O)[C@H](CCCCN)NC(=O)[C@H](CCCCN)NC(=O)[C@H](Cc3c[nH]c4ccccc34)NC(=O)[C@H](CSSC[C@H](NC(=O)[C@H](C)NC(=O)[C@H](C)N)C(=O)N[C@@H](CC(N)=O)C(=O)N2)NC(=O)[C@H](CCC(N)=O)NC(=O)[C@H](Cc2c[nH]cn2)NC(=O)[C@@H]2CCCN2C(=O)[C@H]([C@@H](C)CC)NC1=O` [Peptide 55, TPN-RQ(L2A)] (H-AACNCNRRIIPHQCWKKCGKK-NH2; disulfide 3-14, 5-18), for which the inhibition at 1 µM was 60 to 80%.

In the case of `CC[C@H](C)[C@@H]1NC(=O)[C@H](CCCNC(=N)N)NC(=O)[C@H](CCCNC(=N)N)NC(=O)[C@H](CC(N)=O)NC(=O)[C@@H]2CSSC[C@@H](C(=O)NCC(=O)N[C@@H](CCCCN)C(=O)N[C@@H](CCCCN)C(N)=O)NC(=O)[C@H](CCCCN)NC(=O)[C@H](CCCCN)NC(=O)[C@H](Cc3c[nH]c4ccccc34)NC(=O)[C@H](CSSC[C@H](NC(=O)[C@H](CC(C)C)NC(=O)[C@H](C)N)C(=O)N[C@@H](C)C(=O)N2)NC(=O)[C@H](CCC(N)=O)NC(=O)[C@H](Cc2c[nH]cn2)NC(=O)[C@@H]2CCCN2C(=O)[C@H]([C@@H](C)CC)NC1=O` [Peptide 56, TPN-RQ(N4A)] (H-ALCACNRRIIPHQCWKKCGKK-NH2; disulfide 3-14, 5-18), the inhibition at 1 µM was 60 to 80%.
